These results are taken from patent US20220151827A1, “Ophthalmic Compositions, and Ocular Uses Thereof, of Indigo Carmine” (priority 2019, published 2022).

In one data set the test system is eye bank eyes. Briefly: Dye solution instilled by injection into the anterior chamber of eye bank eyes, viewed by naked eye / operating microscope. Also noted: species or system human. The following applies: for egress of dye from the eye into outflow vessels after injection into the anterior chamber: eye bank eyes, Indigo Carmine 0.004, 0.04, 0.4 wt. %, other ophthalmic dyes for comparison. From the text: After an incision is made into the anterior chamber of the eye, a small amount of aqueous humor is expressed and the dye solution is instilled by injection into the anterior chamber. The dye solution is typically left in place for 30 seconds, during which time it stains the anterior capsule of the lens. Excess dye solution is then expelled, usually using a viscoelastic device or flushed out with a balanced salt solution.
Dye solutions containing 0.004 wt. %, 0.04 wt. %, and 0.4 wt. % of Indigo Carmine (prepared by serial dilutions of a 0.4 wt. % Indigo Carmine solution provided by Micro-Tech (Nanjing) Co.) were instilled by injection into the anterior chamber of seven eye bank eyes following the dye solution instillation procedure detailed above.
Special imaging techniques were not required.

In a further data set the test system is anterior capsule. The conditions noted are these: cited from earlier work.
The subject of another data set is ocular structures. The following applies: cited from earlier work.
For data set [1] the following is noted: cited from earlier work.
A further data set concerns porcine eye. Briefly: Dye injected into the lenticular plain after Small Incision Lenticule Extraction (SMILE) in a porcine eye. The following applies: injected along the laser incision planes. From the text: FIG. 9A is an operating microscope view of a porcine eye upon which a Small Incision Lenticule Extraction procedure (SMILE) has been carried out. From this view, circular horizontal plains have been cut in the corneal stroma, a superficial smaller diameter cut and a deeper cut of larger diameter. The cuts join in the corneal periphery, thereby creating a lenticule. The arrows show the edge of these cuts.
FIG. 9B is an operating microscope view of a porcine eye upon which a Small Incision Lenticule Extraction procedure (SMILE) has been carried out. Indigo Carmine has been injected into the lenticular plain. The white arrows indicate the complete circular edge of the lenticule.
Minimally invasive corneal procedures for correcting refractive error (see, e.g., Titiyal, J. S., et al., “Learning Curve of Small Incision Lenticule Extraction: Challenges and Complications”, Cornea, 2017, 36:1377-1382) have also been developed in recent years. For example, in Small Incision Lenticule Extraction (SMILE), a lenticule of corneal stroma is created within the stroma using a laser and then removed through a small incision. Occasionally, the cuts that create the lenticule are discontinuous, making lenticule extraction difficult. […]

For data set [2] the following is noted: reduced state, fluorescent; cited from earlier work.
Data set [3] deals with ocular surface squamous neoplastic lesion. Put plainly: Topical application of dye to a human eye, slit lamp view of ocular surface squamous neoplastic lesion. It counts as in vivo. From the text: FIG. 8 is a slit lamp view of a human eye wherein an ocular surface squamous neoplastic lesion is delineated after topical application of Indigo Carmine. A blue outline is seen around the perimeter of the white ocular surface squamous neoplastic lesion.
In certain embodiments, the dye delineates eye surface dysplasia and malignancy (ocular surface squamous neoplasia) as has been found in the gut (see, e.g., Oyama, T., “Diagnostic strategies of superficial Barrett's esophageal cancer for endoscopic submucosal dissection”, Dig. Endosc., 2013, 25 Suppl 1:7-12) (see FIG. 7)

The next data set deals with protein. The following applies: sodium salt; cited from earlier work.
Setting [4] is: anterior chamber perfused with dye solution, sodium salt.

Entries after “also recorded” stand apart in the source; their conditions may differ.

As to `CC1(C)C(/C=C/C=C/C=C/C=C2\N(CCCCS(=O)(=O)O)c3ccc4ccccc4c3C2(C)C)=[N+](CCCCS(=O)(=O)[O-])c2ccc3ccccc3c21` [Indocyanine Green], the “egress of dye from the eye into outflow vessels after injection into the anterior chamber” value (shortened to “egress of dye”) in the data set with eye bank eyes was “appears to remain within the eye”.

On to `Cc1cc(-c2ccc(/N=N/c3c(S(=O)(=O)O)cc4cc(S(=O)(=O)O)cc(N)c4c3O)c(C)c2)ccc1/N=N/c1c(S(=O)(=O)O)cc2cc(S(=O)(=O)O)cc(N)c2c1O` [Trypan Blue], for which, in the data set with anterior capsule, the “lowest concentration at which staining can occur” value is recorded as 0.0125 wt. %. In addition, in the data set with ocular structures, the “identifying and visualizing anterior lens capsule and trabecular meshwork” value is given as “effective”; the “identifying or visualizing the canal of Schlemm” value is “not effective”. Besides, the “staining of the trabecular meshwork” value in the data set with eye bank eyes (anterior chamber perfused with dye solution) was “particularly enhances trabecular meshwork staining”. In addition, in the data set with eye bank eyes, the “egress of dye” value is listed as “appears to remain within the eye”.

In the case of `CCN(CC)c1ccc(C(=C2C=CC(=[N+](CC)CC)C=C2)c2cc(O)c(S(=O)(=O)O)cc2S(=O)(=O)O)cc1` [Patent Blue], the “egress of dye” value in the data set on eye bank eyes is on record as “appears to remain within the eye”.

On to `O=C1C(=C2Nc3ccc(S(=O)(=O)[O-])cc3C2=O)Nc2ccc(S(=O)(=O)[O-])cc21.[Na+].[Na+]` [Indigo Carmine, 5,5′-indigodisulfonic acid sodium salt], for which the solubility in water entry in data set [1] was “soluble in water”. The “identification of laser incision planes and lenticule edge” value in the data set on porcine eye was “possible to identify and determine the extent of these incisions”. In data set [2], the absorption maximum is 436 nm and the emission maximum is on record as 528 nm. The “delineation of ocular surface squamous neoplastic lesion” value in data set [3] is listed as “delineated”. In the data set with eye bank eyes (setting [4]), the “staining of the canal of Schlemm” value is reported as “heavily; also recorded: heavy staining” and the “staining of the trabecular meshwork” value was “lightly; also recorded: more lightly stained”. Moreover, the “visibility of dye in the collector channels on the surface of the eye” value in the data set on eye bank eyes (at each concentration: 0.004, 0.04 and 0.4 wt. %) was “visible to the naked eye of the surgeon as it appeared in the collector channels on the surface of the eye”. Also, in the data set on eye bank eyes (capsulorhexis procedure, eye bank eye), the “staining of the anterior capsule of the lens” value was “lightly stained”. The “dye in the deep scleral plexus” value in the data set with eye bank eyes (conjunctiva reflected away, sodium salt) was “observed in the deep scleral plexus; also recorded: deeper vessels are seen, evidence of the deep scleral plexus”. The “egress of dye” value with eye bank eyes (sodium salt) is “appeared in the fine vessels in the conjunctiva adjacent to the limbus, the aqueous veins and the conjunctival venous system; also recorded: some of the dye exiting the eye through the aqueous veins”. Besides, the “visibility of dye on the surface of the instilled eye” value with eye bank eyes (no special imaging) is reported as “easily visible to the naked eye of the surgeon”. For the same compound, the protein binding result in the data set with protein is “low protein binding; also recorded: relatively reduced”.

For Brilliant Blue, the “egress of dye” value in the data set with eye bank eyes is reported as “appears to remain within the eye”.
